Experimental data published in US6180600A, “CD8 antagonists” (Thomas Jefferson University, priority 1997, dated 2001).
Bridge positions count the residues as written; N and C are the ends. Ends that are not written are not given here.

Assays:
[1] = tested on: cytotoxic T-cell mediated lympholysis of 51Cr labelled EL-4 (H-2b) targets; assay: 4 hour 51Cr release assay: inhibition of cytotoxic T-cell mediated lympholysis by peptide; assay type: cell-based, mouse (AKR/J anti C57BL/6 effectors); settings: for inhibition of specific lysis of targets: peptide 100, 10 or 1 μg/ml pre-incubated 30 minutes at 37° C. with effectors, Effector:Target 30:1, 10:1, 3:1, 1:1, 4 hour lysis
Procedure: The effect of peptide on cytotoxicity was measured in a 4 hour ^51 Cr release assay. H-2^b specific effectors were generated in a AKR/J (H-2^k) anti C57BL/6 (H-2^b) mixed lymphocyte reaction. The stimulators (C57BL/6 spleen cells) are gamma-irradiated at 1500 RADS. The targets were obtained from a tumor cell line, EL-4 (H-2^b), that were labelled with Na^51 CrO4. On Day 5 the effectors are harvested and counted. The peptide, at concentrations of 100 μg/ml, 10 μg/ml or 1 μg/ml, was first incubated for 30 minutes at 37° C. with effectors of varying numbers and then ^51 Cr labelled targets were added in a 4 hour specific lysis experiment. The target cell lysis was assessed at Effector:Target ratios of 30:1, 10:1, 3:1, and 1:1. Toxic effects of the peptide was determined by the % specific lysis above background that was obtained by incubating just peptide and labelled targets. No toxic effects were observed. Also, anti-CD8 monoclonal antibody that blocks the interaction resulting in lowered lympholysis is used in the assay.

[2] = tested on: activation of CTL in AKR/J anti C57BL/6 mixed lymphocyte reaction; assay: Inhibition of activation/generation of cytotoxic T-cells: mixed lymphocyte reaction in presence of peptide, then 51Cr release; assay type: cell-based, mouse; settings: peptide present during MLR; effectors washed on Day-6; 4-hour lysis of EL-4 targets
Procedure: The effect of the peptide on the activation of CTL capable of lympholysis was determined by generating effector T-cells in AKR/J anti C57BL/6 mixed lymphocyte reaction in the presence of peptide. On Day-6, effectors are washed and then ^51 Cr-labelled EL-4 targets were added in a 4-hour specific lysis experiment.

[3] = tested on: allogeneic skin graft rejection; assay: Murine skin transplantation (tail skin allograft onto bm1 recipients); assay type: in vivo, mouse
Source text: Tail skin from C57BL/7 [H-2b] donor is grafted onto the ventral side of bm1 recipient tails. The donors are asphyxiated and 2×4 mm tail pieces are cut. These grafts are placed in 0.1% BSA in PBS on ice. Recipients are anesthetized in isoflurane chamber. While still anesthetized, grafting beds of 10×10 mm on the ventral side of the tail are cut. Two grafting beds per mouse are made, one for syngeneic graft and the other for the allogeneic graft. The grafts are turned 180' and placed in the beds such that the hair of the graft grows in the opposite direction. The grafts are trimmed if necessary such that they fit in the beds without skin hanging over the edge of the beds. A blunt glass tube is placed over the grafts and taped into place. This glass is removed on day 2 post-transplantation.
Five animals per treatment group are used and treatment is prior to transplantation. The untreated group is injected into the tail vein with 200 μl of PBS on Day 0.
Grafts are observed every other day for signs of rejection. […] Grafts are considered rejected due to mechanical failure if the grafts are rejected by Day 3.

[4] = tested on: GVHD, primarily CD8+ based; assay: Murine model of GVHD (B10.BR ATBM plus CD8+ T-cells into lethally irradiated host); assay type: in vivo, mouse; settings: 0.5 mgs peptide on Day 0, 3 and 6; FIG. 2
Procedure: Donor bone marrow is harvested from tibias and femurs of B10.BR mice. T-cells are eliminated from the bone marrow by treatment with anti-Thy1.2 and complement. Complement treatment for 2 cycles at 37° C. for 1 hour each results in more than 90% pure population of bone marrow cells. 10×10^6 T-cell depleted bone marrow [ATBM] cells are injected into the tail vein. Donor splenocytes undergo red blood cell lysis followed by B cell and CD4+ T-cells are depletion using anti-J1J and anti-RL147 antibodies, respectively. This purified CD8+ T-cell population from donors (5×10^6 cells) is injected into the tail vein of the animal. The host is lethally irradiated at 850 cGy approximately 6 hours prior to bone marrow transplantation. Characteristic features of murine acute GVHD include weight loss, diarrhea and loss of hair and death. Body weights were monitored before and after treatment. The treated mice were housed in sterile conditions and observed daily for acute GVHD-like reactions. Lethally irradiated mice reconstituted with ATBM only survive without signs of disease. Mice are treated with 0.5 mgs of SC2 peptide on Day 0, 3 and 6.

| Substance | inhibition of specific lysis of targets [1] | inhibition of specific lysis of targets (effectors generated in presence of peptide) [2] | further results |
| --- | --- | --- | --- |
| C-D-E-K-L-N-S-S-K-L-C (CDEKLNSSKLC; not fully specified; printed as C-D-E-K-L-N-S-S-K-L-C; cysteine pairing not given here) [SC11] | does not | show inhibition of specific lysis of targets in a concentration dependent manner | – |
| C-S-S-H-N-K-P-C (CSSHNKPC) [SC2] | inhibits specific lysis of targets in a concentration dependent manner | show inhibition of specific lysis of targets in a concentration dependent manner | skin graft survival ([3]; 0.5 mgs/200 μl PBS in the tail vein on Day 0, FIG. 1): consistently prolonged skin graft survival with biological significance; onset of GVHD [4]: delays the onset of GVHD |
| CLSQNKPC (disulfide 1-8 (inferred)) [Wu-1, cyclic peptide consisting of human CD8 amino acids 52-57 with amino terminal and carboxy terminal cysteines] | – | – | inhibition of killing ([1]; 51[Cr]-release assay as described in Example 2, FIG. 3): approximately 50% |
| Wu-2: linear peptide consisting of human CD8 amino acids 37-47 (CQPRGAAASPC) | – | – | rejection of skin grafts ([3]; skin transplantation assay of Example 4, FIG. 4): significant delay in rejection |
